# Experimental data reported in patent publication US10131679B2, “Substituted dihydropyrrolopyrazole compound” (UBE INDUSTRIES, LTD., priority 2014, dated 2018).
# How the values were obtained:
# [1] = test system: Human keratinocytes (NHEK-Neo Pooled); test: Human keratinocyte growth inhibition assay; type: cell-based; conditions: 48 h, culture for 2 days, Cell Counting Kit-8
# Method: Human Keratinocyte Growth Inhibition Assay
# The measurement of a human keratinocyte growth inhibitory effect was carried out by modifying the method of Schafer et al. (British Journal of Pharmacology, 159, 842 (2011)).
# Human keratinocytes (NHEK-Neo Pooled, manufactured by Lonza Group AG, Cat. No. 00192906) were cultured in KGM-Gold Bullet Kit (manufactured by Lonza Group AG, Cat. No. 00192060) and inoculated at 2.0×10^3 cells/well to a 96-well plate. After overnight culture in a carbon dioxide incubator, a test compound dissolved in DMSO (final DMSO concentration: 0.1%) was added and left standing in a carbon dioxide incubator. After culture for 2 days, the absorbance thereof was measured by using Cell Counting Kit-8 (343-07623 manufactured by Dojindo Laboratories)).
# (§1) The rate of inhibition of cell growth at each concentration was calculated from the test compound concentration and the absorbance of Cell Counting Kit-8, and the concentration of the test compound necessary for inhibiting 50% of cell growth (IC50 value) was calculated by using EXSUS (version 8.0.0 or version 8.0.1, manufactured by CAC Exicare Corp.).
# [2] = test system: IL-6 production in rat adjuvant arthritis model; test: IL-6 production inhibition test in rat adjuvant arthritis model; type: in vivo, LEW rats; conditions: single dose, left ankle, read-out: rate of inhibition of IL-6 production; for inhibition in vivo at 3 mg/kg: administration of 3 mg/kg; for inhibition in vivo at 10 mg/kg: administration of 10 mg/kg
# Method: IL-6 Production Inhibition Test in Rat Adjuvant Arthritis Model
# A single-dose drug efficacy test using rat adjuvant arthritis models was carried out by modifying the method of Magari. K et al. (J. Rheumatol. 30 (10), 2193 (2003)).
# LEW rats (female, supplied by Charles River Laboratories Japan, Inc.) were used as laboratory animals. An adjuvant prepared from heat-killed bacteria of Mycobacterium butyricum (264010 manufactured by Difco Laboratories Ltd.) and liquid paraffin (manufactured by Wako Pure Chemical Industries, Ltd., Code No. 128-04375) was subcutaneously administered as a phlogogenic material to the right hind leg footpads of the rats under inhalation anesthesia with isoflurane (manufactured by Wako Pure Chemical Industries, Ltd., Code No. 099-06571) to prepare arthritis models. Approximately 2 weeks later, left paw edema was measured with a paw volume meter (model TK-101CMP manufactured by Unicorn Co., Ltd.), and grouping was performed such that the average volume of left paw edema was equal among groups. A test compound or only a solvent was administered, after a certain time, they were sacrificed by exsanguination from the abdomens under isoflurane anesthesia, and the left ankles were collected, chopped, and frozen by using liquid nitrogen. The collected left ankle portions were disrupted in CRYOPress (model CP-100WP manufactured by Microtec Co., Ltd.), then supplemented with a buffer solution, shaken overnight at 4° C., and then centrifuged to collected a supernatant. The preparation of the buffer solution was performed by mixing a Tris buffer solution (pH 7.4), sodium chloride (NaCl), phenyl methyl sulfonyl fluoride (PMSF), Triton X-100, EDTA-free complete tablets (manufactured by F. Hoffmann-La Roche, Ltd., REF. 11 873 580 001), and Otsuka distilled water (manufactured by Otsuka Pharmaceutical Co., Ltd., product No. 1323). IL-6 in the collected supernatant was measured by using a sandwich ELISA kit (manufactured by R&D Systems, Inc., Catalog No. S6050).
# The IL-6 content of each sample was calculated from the calibration curve of Standard IL-6 included in the kit. When the amount of IL-6 produced in the solvent administration control group was defined as 100%, the rate of inhibition of IL-6 production (%) at each dose of the test compound was calculated.
# [3] = test system: human breast cancer cell line (MCF-7); test: Human breast cancer (MCF-7) cell growth inhibition test; type: cell-based; conditions: MCF7, 72 h, MCF-7, culture for 3 days, sulforhodamine B absorbance
# Method: Human Breast Cancer (MCF-7) Cell Growth Inhibition Test
# The measurement of a human breast cancer cell growth inhibitory effect was carried out by modifying the method of Simak et al. (Cancer Research, 69, 6208 (2009)).
# A human breast cancer cell line (MCF-7) manufactured by DS Pharma Biomedical Co., Ltd., Cat. No. EC86012803, was cultured in MEM (manufactured by GIBCO/Thermo Fisher Scientific, Inc., REF. 11095-080) medium containing 10% FBS (manufactured by GIBCO/Thermo Fisher Scientific, Inc., REF. 10082-147), nonessential amino acids (manufactured by GIBCO/Thermo Fisher Scientific, Inc., REF. 11140-050), and 1% penicillin/streptomycin/amphotericin B (manufactured by GIBCO/Thermo Fisher Scientific, Inc., REF. 15240-096) and inoculated at 3.0×10^3 cells/well to a 96-well plate (manufactured by Corning Inc., REF. 353072). After overnight culture in a carbon dioxide incubator, it was replaced with a fresh MEM medium containing 10% FBS, nonessential amino acids, and 1% penicillin/streptomycin/amphotericin B on the next day, and a test compound dissolved in DMSO (manufactured by Wako Pure Chemical Industries, Ltd., Code No. 043-07216) (final DMSO concentration: 0.1%) was added and left standing in a carbon dioxide incubator. After culture for 3 days, the absorbance of each well was measured by using In Vitro Toxicology Assay Kit Sulforhodamine B based (manufactured by Sigma-Aldrich Co. LLC., Pcode 1001910706).
# as §1, with “sulforhodamine B,” for “Cell Counting Kit-8,”
IC50 [3],Structure (SMILES),IC50 [1],also measured
,"CCOC[C@@H](NC(=O)N1Cc2c(NC(=O)C3([Si](C)(C)C)CCC3)n[nH]c2C1(C)C)c1ccccc1 [IV-139, (S)—N-(2-Ethoxy-1-phenylethyl)-6,6-dimethyl-3-[1-(trimethylsilyl)cyclobutanecarboxamido]-4,6-dihydropyrrolo[3,4-c]pyrazole-5(1H)-carboxamide]",≤ 500 nM,inhibition in vivo at 3 mg/kg [2]: ≥ 50%
,"CC1(C)c2[nH]nc(NC(=O)C3([Si](C)(C)C)CCC3)c2CN1C(=O)O[C@H](CO)c1ccccc1 [IV-2, (S)-2-Hydroxy-1-phenylethyl 6,6-dimethyl-3-[1-(trimethylsilyl)cyclobutanecarboxamido]-4,6-dihydropyrrolo[3,4-c]pyrazole-5(1H)-carboxylate]",,inhibition in vivo at 10 mg/kg [2]: ≥ 50%
≤ 500 nM,"C[C@@H](CO)NC(=O)N1Cc2c(NC(=O)C3([Si](C)(C)C)CCC3)n[nH]c2C1(C)C [IV-455, (S)—N-(1-Hydroxypropan-2-yl)-6,6-dimethyl-3-[1-(trimethylsilyl)cyclobutanecarboxamido]-4,6-dihydropyrrolo[3,4-c]pyrazole-5(1H)-carboxamide]",,
≤ 500 nM,"CC1(C)c2[nH]nc(NC(=O)C3([Si](C)(C)C)CCC3)c2CN1C(=O)N[C@H](CCCCO)c1ccccc1 [IV-291, (R)—N-(5-Hydroxy-1-phenylpentyl)-6,6-dimethyl-3-[1-(trimethylsilyl)cyclobutanecarboxamido]-4,6-dihydropyrrolo[3,4-c]pyrazole-5(1H)-carboxamide]",,
≤ 500 nM,"CC1(C)c2[nH]nc(NC(=O)C3([Si](C)(C)C)CCC3)c2CN1C(=O)NCCO [IV-438, N-(2-Hydroxyethyl)-6,6-dimethyl-3-[1-(trimethylsilyl)cyclobutanecarboxamido]-4,6-dihydropyrrolo[3,4-c]pyrazole-5(1H)-carboxamide]",,
≤ 500 nM,"CC(C)[C@@H](CO)NC(=O)N1Cc2c(NC(=O)C3([Si](C)(C)C)CCC3)n[nH]c2C1(C)C [IV-475, (S)—N-(1-Hydroxy-3-methylbutan-2-yl)-6,6-dimethyl-3-[1-(trimethylsilyl)cyclobutanecarboxamido]-4,6-dihydropyrrolo[3,4-c]pyrazole-5(1H)-carboxamide]",,
≤ 500 nM,"CC[Si](C)(C)C1(C(=O)Nc2n[nH]c3c2CN(C(=O)N[C@H](CO)c2ccccc2)C3(C)C)CCC1 [IV-117, (S)-3-[1-(Ethyldimethylsilyl)cyclobutanecarboxamido]-N-(2-hydroxy-1-phenylethyl)-6,6-dimethyl-4,6-dihydropyrrolo[3,4-c]pyrazole-5(1H)-carboxamide]",,
,"CC1(C)c2[nH]nc(NC(=O)C3([Si](C)(C)C)CCC3)c2CN1C(=O)[C@H](OC(F)F)c1ccccc1 [IV-1180, (R)—N-{5-[2-(Difluoromethoxy)-2-phenylacetyl]-6,6-dimethyl-1,4,5,6-tetrahydropyrrolo[3,4-c]pyrazol-3-yl}-1-(trimethylsilyl)cyclobutanecarboxamide]",≤ 500 nM,
,"CCO[C@@H](C(=O)N1Cc2c(NC(=O)C3([Si](C)(C)C)CCC3)n[nH]c2C1(C)C)c1ccccc1 [IV-1188, (R)—N-[5-(2-Ethoxy-2-phenylacetyl)-6,6-dimethyl-1,4,5,6-tetrahydropyrrolo[3,4-c]pyrazol-3-yl]-1-(trimethylsilyl)cyclobutanecarboxamide]",≤ 500 nM,
,"CC(C)(CO)C(NC(=O)N1Cc2c(NC(=O)C3([Si](C)(C)C)CCC3)n[nH]c2C1(C)C)c1ccccc1 (racemic) [IV-354, N-(3-Hydroxy-2,2-dimethyl-1-phenylpropyl)-6,6-dimethyl-3-[1-(trimethylsilyl)cyclobutanecarboxamido]-4,6-dihydropyrrolo[3,4-c]pyrazole-5(1H)-carboxamide]",≤ 500 nM,
,"CC1(C)c2[nH]nc(NC(=O)C(C)(C)[Si](C)(C)C)c2CN1C(=O)N[C@H](CO)c1ccccc1 [II-114, (S)—N-(2-Hydroxy-1-phenylethyl)-6,6-dimethyl-3-[2-methyl-2-(trimethylsilyl)propanamido]-4,6-dihydropyrrolo[3,4-c]pyrazole-5(1H)-carboxamide]",,inhibition in vivo at 10 mg/kg [2]: ≥ 50%
≤ 500 nM,"CC1(C)c2[nH]nc(NC(=O)C3([Si](C)(C)C)CCC3)c2CN1C(=O)N[C@H](CO)c1ccccc1 [IV-114, (S)—N-(2-Hydroxy-1-phenylethyl)-6,6-dimethyl-3-[1-(trimethylsilyl)cyclobutanecarboxamido]-4,6-dihydropyrrolo[3,4-c]pyrazole-5(1H)-carboxamide]",,
,"CC[Si](C)(C)C1(C(=O)Nc2n[nH]c3c2CN(C(=O)[C@H](OC)c2ccccc2)C3(C)C)CCC1 [IV-1178, (R)-1-(Ethyldimethylsilyl)-N-[5-(2-methoxy-2-phenylacetyl)-6,6-dimethyl-1,4,5,6-tetrahydropyrrolo[3,4-c]pyrazol-3-yl] cyclobutanecarboxamide]",≤ 500 nM,
≤ 500 nM,"CC1(C)c2[nH]nc(NC(=O)C3([Si](C)(C)C)CCC3)c2CN1C(=O)N[C@H](CO)C1CCCCC1 [IV-495, (S)—N-(1-Cyclohexyl-2-hydroxyethyl)-6,6-dimethyl-3-[1-(trimethylsilyl)cyclobutanecarboxamido]-4,6-dihydropyrrolo[3,4-c]pyrazole-5(1H)-carboxamide]",,
,"CN(C(=O)N1Cc2c(NC(=O)C3([Si](C)(C)C)CCC3)n[nH]c2C1(C)C)[C@H](CO)c1ccccc1 [IV-119, (S)—N-(2-Hydroxy-1-phenylethyl)-N,6,6-trimethyl-3-[1-(trimethylsilyl)cyclobutanecarboxamido]-4,6-dihydropyrrolo[3,4-c]pyrazole-5(1H)-carboxamide]",,inhibition in vivo at 10 mg/kg [2]: ≥ 50%
,"CC1(C)c2[nH]nc(NC(=O)C3([Si](C)(C)C)CCC3)c2CN1C(=O)C(CO)c1ccccc1 (stereo not drawn) [IV-632, N-[5-(3-Hydroxy-2-phenylpropanoyl)-6,6-dimethyl-1,4,5,6-tetrahydropyrrolo[3,4-c]pyrazol-3-yl]-1-(trimethylsilyl)cyclobutanecarboxamide]",,inhibition in vivo at 3 mg/kg [2]: ≥ 50%
,"CO[C@@H](C(=O)N1Cc2c(NC(=O)C3([Si](C)(C)C)CCC3)n[nH]c2C1(C)C)c1ccccc1 [IV-1175, (R)—N-[5-(2-Methoxy-2-phenylacetyl)-6,6-dimethyl-1,4,5,6-tetrahydropyrrolo[3,4-c]pyrazol-3-yl]-1-(trimethylsilyl)cyclobutanecarboxamide]",≤ 500 nM,
